Measurements published in patent publication US9113629B2, “4-amino-6-(4-substituted-phenyl)-picolinates and 6-amino-2-(4-substituted-phenyl)-pyrimidine-4-carboxylates and their use as herbicides” (DOW AGROSCIENCES LLC, priority 2013, dated 2015).
Like-named read-outs stand apart in the source and are kept apart here.

Columns and labels:
[1] = system: Key Broadleaf Weed and Crop Species; test: Post-emergent Test II herbicidal activity (Table 5); assay type: in vivo; conditions: post-emergence, 336 h, 14 days after application; for pest or weed control at 70 g/ha: application rate 70 g ai/ha; for pest or weed control at 140 g/ha: application rate 140 g ai/ha
Summary of the method: (§1)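 Visual injury ratings (0 = no injury, 100 = complete kill) were taken 14 d after treatment, relative to untreated plants. Seedlings at the first–second true leaf stage received overhead spray at 187 L/ha; the highest rate was serially diluted to ½×, ¼×, ⅛× and 1/16×.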

[2] = system: Key Grass and Sedge Weeds as well as Grass Crops; test: Post-emergent Test II herbicidal activity (Table 6); assay type: in vivo; conditions: post-emergence, 336 h; for pest or weed control at 70 g/ha: 70 g ai/ha; for pest or weed control at 140 g/ha: 140 g ai/ha
Summary of the method: as §1

[3] = ABUTH: velvetleaf (Abutilon theophrasti), read-out: Visual Growth Reduction (%) 14 Days After Application, ABUTH
[4] = AMARE: redroot pigweed (Amaranthus retroflexus), read-out: Visual Growth Reduction (%) 14 Days After Application, AMARE
[5] = BRSNN: oilseed-rape, canola (Brassica napus), read-out: Visual Growth Reduction (%) 14 Days After Application, BRSNN
[6] = CHEAL: lambsquarters (Chenopodium album), read-out: Visual Growth Reduction (%) 14 Days After Application, CHEAL
[7] = EPHHL: wild poinsettia (Euphorbia heterophylla), read-out: Visual Growth Reduction (%) 14 Days After Application, EPHHL
[8] = HELAN: sunflower (Helianthus annuus), read-out: Visual Growth Reduction (%) 14 Days After Application, HELAN
[9] = VIOTR: wild pansy (Viola tricolor), read-out: Visual Growth Reduction (%) 14 Days After Application, VIOTR
[10] = CYPES: yellow nutsedge (Cyperus esculentus), read-out: Visual Growth Reduction (%) 14 Days After Application, CYPES
[11] = DIGSA: crabgrass (Digitaria sanguinalis), read-out: Visual Growth Reduction (%) 14 Days After Application, DIGSA
[12] = ECHCG: barnyardgrass (Echinochloa crus-galli), read-out: Visual Growth Reduction (%) 14 Days After Application, ECHCG
[13] = ORYSA: rice (Oryza sativa), crop, read-out: Visual Growth Reduction (%) 14 Days After Application, ORYSA
[14] = SETFA: giant foxtail (Setaria faberi), read-out: Visual Growth Reduction (%) 14 Days After Application, SETFA
[15] = SORVU: grain sorghum (Sorghum vulgare), read-out: Visual Growth Reduction (%) 14 Days After Application, SORVU
[16] = TRZSS (wheat, Triticum aestivum), crop, read-out: Visual Growth Reduction (%) 14 Days After Application, TRZSS
[17] = ZEAMX: maize, corn (Zea mays), crop, read-out: Visual Growth Reduction (%) 14 Days After Application, ZEAMX

With COC(=O)c1nc(-c2ccc(I)cc2)c(F)c(N)c1Cl [Compound 118, Methyl 4-amino-6-(4-iodophenyl)-3-chloro-5-fluoropicolinate] as the compound, how does the pest or weed control at 70 g/ha [1, 3] read?
The pest or weed control at 70 g/ha was 95 to 100%.

What about the pest or weed control at 140 g/ha [1, 3] of the same compound?
The pest or weed control at 140 g/ha was 95 to 100%.

What about the pest or weed control at 70 g/ha [1, 4] of the same compound?
Its pest or weed control at 70 g/ha is 95 to 100%.

What about the pest or weed control at 140 g/ha [1, 4] of the same compound?
Its pest or weed control at 140 g/ha is 95 to 100%.

And the pest or weed control at 70 g/ha [1, 5]?
Its pest or weed control at 70 g/ha is 95 to 100%.

And the pest or weed control at 140 g/ha [1, 5]?
Its pest or weed control at 140 g/ha is 95 to 100%.

And the pest or weed control at 70 g/ha [1, 6]?
The pest or weed control at 70 g/ha was 95 to 100%.

And the pest or weed control at 140 g/ha [1, 6]?
The pest or weed control at 140 g/ha was 95 to 100%.

And the pest or weed control at 70 g/ha [1, 7]?
The pest or weed control at 70 g/ha was 95 to 100%.

What about the pest or weed control at 140 g/ha [1, 7] of the same compound?
Its pest or weed control at 140 g/ha is 95 to 100%.

What about the pest or weed control at 70 g/ha [1, 8] of the same compound?
Its pest or weed control at 70 g/ha is 95 to 100%.

What about the pest or weed control at 140 g/ha [1, 8] of the same compound?
Its pest or weed control at 140 g/ha is 95 to 100%.

And the pest or weed control at 70 g/ha [1, 9]?
The pest or weed control at 70 g/ha was 85 to 94%.

And the pest or weed control at 140 g/ha [1, 9]?
The pest or weed control at 140 g/ha was 95 to 100%.

What about the pest or weed control at 70 g/ha [2, 10] of the same compound?
Its pest or weed control at 70 g/ha is 95 to 100%.

What about the pest or weed control at 140 g/ha [2, 10] of the same compound?
Its pest or weed control at 140 g/ha is 95 to 100%.

And the pest or weed control at 70 g/ha [2, 11]?
Its pest or weed control at 70 g/ha is 75 to 84%.

And the pest or weed control at 140 g/ha [2, 11]?
Its pest or weed control at 140 g/ha is 85 to 94%.

And the pest or weed control at 70 g/ha [2, 12]?
Its pest or weed control at 70 g/ha is 95 to 100%.

And the pest or weed control at 140 g/ha [2, 12]?
The pest or weed control at 140 g/ha was 95 to 100%.

What about the pest or weed control at 70 g/ha [2, 13] of the same compound?
Its pest or weed control at 70 g/ha is 30 to 44%.

And the pest or weed control at 140 g/ha [2, 13]?
The pest or weed control at 140 g/ha was 45 to 59%.

What about the pest or weed control at 70 g/ha [2, 14] of the same compound?
Its pest or weed control at 70 g/ha is 45 to 59%.

And the pest or weed control at 140 g/ha [2, 14]?
Its pest or weed control at 140 g/ha is 60 to 74%.

What about the pest or weed control at 70 g/ha [2, 15] of the same compound?
Its pest or weed control at 70 g/ha is 95 to 100%.

And the pest or weed control at 140 g/ha [2, 15]?
The pest or weed control at 140 g/ha was 95 to 100%.

And the pest or weed control at 70 g/ha [2, 16]?
Its pest or weed control at 70 g/ha is 75 to 84%.

What about the pest or weed control at 140 g/ha [2, 16] of the same compound?
Its pest or weed control at 140 g/ha is 75 to 84%.

And the pest or weed control at 70 g/ha [2, 17]?
Its pest or weed control at 70 g/ha is 60 to 74%.

And the pest or weed control at 140 g/ha [2, 17]?
The pest or weed control at 140 g/ha was 85 to 94%.
